Two molecules from patent publication US20190030053A1, “COMPOSITION FOR INCREASING EXPRESSION OF PGC-1alpha” (BENEBIOSIS CO., LTD., priority 2016, published 2019) can be followed below.

The subject of experiment [1] is PGC-1α and related genes. The experiment is described as follows: Gene expression in muscle cell test (C2C12). Conditions: C2C12 immature muscle cells, 24 hours. The experiment is classed as cell-based. As to the method:
C2C12 immature muscle cells were prepared from the purchase from American Tissue Culture Collection (ATCC, USA). The cells were cultured in Dulbecco's modified Eagle's medium (DMEM, Gibco, USA) supplemented with 10% fetal bovine serum (FBS, USA) in a 5% CO2 incubator at 37° C. until the cells grew to confluency of 70%, while the medium was exchanged every two days. The differentiation into muscle cells was induced by culturing in a medium containing 2% horse serum (HS, Gibco, USA). The muscle cells cultured in the medium containing 2% HS for 4 days were treated with SL with various concentrations. The negative control group was treated with physiological saline with 1/1000 of the volume of the medium. The cells treated with each sample were incubated at 37° C. for 24 hours, and then washed twice with cool saline solution, and RNA was extracted using TRIzol agent (Invitrogen). cDNA was synthesized by using 1 μg/μl of RNA, which has been extracted as above and quantified, and a reverse transcription system (Promega, USA).
The expression patterns of PGC-1α and related genes were measured by using pre-designed primers and probes (Applied Biosystems; PGC-1α, Mm00447181_m1, GAPDH, and Mm99999915_q1) for the synthesized cDNA and analysis targets (Fndc5, PGC-1α, Erra, UCP1, SOD2, and GPX1). […]

Experiment [2] deals with 6-OHDA induced SD rat Parkinson's disease models. The experiment is described as follows: Behavioral ability tests (corner turn and descent, vertical grating device) in Parkinson's disease models. The experiment is classed as in vivo. Conditions: 6-OHDA SD rats, oral 0.1 mg/kg/day. The text has this:
In order to investigate the changes in gene expression and behavior improvement by the treatment with SL (3′-SL & 6′-SL) compositions in Parkinson's brain disease models, 13-week-old normal SD rats and Parkinson's brain disease models were purchased from Central Lab Animal (Korea). Water was freely accessible, and a commercially available pellet feed (Dooyeul Biotech, Korea) was given for one week. At 14 weeks of age, the SD rats were divided into four groups (composed of 8 animals per group): Eight 14-week-old male SD rats (normal rats; initial body weight, average 355.6±32.3 g) treated with a normal diet were used for a control group. The 6-OHDA induced SD rat Parkinson's disease models, which were administered with 6-hydroxydopamine (6-OHDA) at 8 weeks of age and supplied at 13 weeks of age, were randomly divided into three different dietary treatment groups below (8 animals per group), and these diets were maintained from 14 weeks of age for 10 weeks (total 32 animals): • Control group: Normal rats fed with a normal diet without SL administration (8 animals) • (Parkinson's disease model) group: Parkinson's disease models fed with a normal diet without SL administration (8 animals) • (Parkinson's disease model+3′-SL) group: Parkinson's disease models treated with 3′-sialyllactose (3′-SL, Sigma) (oral administration of 0.1 mg per kg of rat weight per day) in addition to the normal diet group (8 animals) • (Parkinson's disease model+6′-SL) group: Parkinson's disease models treated with 6′-sialyllactose (6′-SL, Sigma) (oral administration of 0.1 mg per kg of rat weight per day) in addition to the normal diet group (8 animals)
In FIG. 8, the vertical axis represents the corner turn time and the descent time as a result of carrying out behavioral ability tests (corner turn and descent) using a vertical grating device on a control group, (Parkinson's disease model) group, (Parkinson's disease model+3′-SL) group, and (Parkinson's disease model+6′-SL) group. The vertical grating device was in the form of an opened box of 5 cm×55 cm×8 cm, and the frant face was formed of a wiring of 0.8 cm×0.8 cm and the other surfaces were formed of black plexiglass. The bottom was made 5 cm longer for safety. In the test, the […] were placed in an upward direction at a distance of 3 cm from the top of the device, and were allowed to acclimate to the device three times for two days before testing. The above procedure was repeated if the rat could not come down within 60 seconds. The corner turn time is the time it takes for a rat facing upwards to turn downwards, and the descent time is the time obtained by subtracting the corner turn time from the overall test time for which the rat turns at the corner and descends to the bottom.

Experiment [3] concerns PGC-1α and related genes. The experiment is described as follows: Abdominal fat gene expression in high-fat diet ob mouse models. Format: in vivo. Conditions: ob mice, oral 0.1 mg/kg/day, 10 weeks. The procedure: In order to investigate gene expression changes and topical fat removal effects by treatment with SL (3′-SL & 6′-SL) composition in mouse models, 4-week-old male ob mouse (C57BL/6J-ob/ob) models were purchased from Central Lab Animal (Korea). Water was freely accessible, and a high-fat diet (Rodent Diet with 60 kcal % fat) was supplied for two weeks. […]
Sialyllactose or DW was orally administered daily. […] The dietary intake and body weight change were measured every 5 days. […]
Gene expression changes by the treatment with SL (3′-SL & 6′-SL) compositions were quantitatively compared in the abdominal part. RNA was extracted by TRIzol agent (Invitrogen). cDNA was synthesized by using RNA, which has been extracted as above and quantified, and a reverse transcription system (Promega, USA). The expression patterns of PGC-1α and related genes were measured by using pre-designed primers and probes (Applied Biosystems; PGC-1α, Mm00447181_m1, GAPDH, and Mm99999915_q1) for the synthesized cDNA and analysis targets (Fndc5, PGC-1α, Erra, UCP1, SOD2, and GPX1). […]

The structures appear in SMILES notation. Entries after “also recorded” stand apart in the source; their conditions may differ.

Turning to `CC(=O)N[C@H]1[C@H]([C@H](O)[C@H](O)CO)O[C@@](O[C@H]2[C@@H](O)[C@@H](CO)O[C@@H](O[C@H]3[C@H](O)[C@@H](O)C(O)O[C@@H]3CO)[C@@H]2O)(C(=O)O)C[C@@H]1O` (stereo partly drawn) [3′-SL, α-NeuNAc-(2→3)-β-D-Gal-(1→4)-D-Glc], the “expression levels of analysis targets (Fndc5, PGC-1α, Erra, UCP1, BDNF, SOD2, GPX1) vs negative control” value in the experiment with PGC-1α and related genes [1] was “significant increases; also recorded: lower than that of 6′-SL”. In experiment [2], the corner turn time result was “relatively low compared with 6′-SL” and the descent time result is on record as “relatively low compared with 6′-SL”. The “expression levels of analysis targets (Fndc5, PGC-1α, Erra, UCP1, SOD2, GPX1) in abdominal fat vs negative control” value with PGC-1α and related genes [3] is “relatively low compared with 6′-SL”.
As to `CC(=O)N[C@H]1[C@H]([C@H](O)[C@H](O)CO)O[C@@](OC[C@H]2O[C@@H](O[C@H]3[C@H](O)[C@@H](O)[C@H](O)O[C@@H]3CO)[C@H](O)[C@@H](O)[C@H]2O)(C(=O)O)C[C@@H]1O` [6′-SL, α-NeuNAc-(2→6)-β-D-Gal-(1→4)-D-Glc], in the experiment with PGC-1α and related genes [1], the “expression levels of analysis targets (Fndc5, PGC-1α, Erra, UCP1, BDNF, SOD2, GPX1) vs negative control” value is given as “significant increases”. In addition, in experiment [2], the corner turn time result was “almost similar to those in the control group” and the descent time result was “almost similar to those in the control group”. In addition, in the experiment with PGC-1α and related genes [3], the “expression levels of analysis targets (Fndc5, PGC-1α, Erra, UCP1, SOD2, GPX1) in abdominal fat vs negative control” value is “about two-time significant increases”.
